Measured values published in US11254663B2 (BRISTOL-MYERS SQUIBB COMPANY, priority 2019, dated 2022).

What follows are compounds tested against FXR (Homo sapiens (Human), UniProt Q96RI1) (assay: transient human FXR/Gal4-luciferase reporter assay). Conditions: not given.
Assay type: cell-based
Procedure, shortened: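 Compound exposure ran overnight at 37 °C and activity was measured as luminescence with Steady-Glo reagent. The cells were a HEK293 line stably expressing firefly luciferase under five Gal4 response elements. They were transiently transfected, one night beforehand, with a plasmid encoding Gal4 DNA-binding domain fused to the human FXR ligand-binding domain.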

Sequence of FXR (Q96RI1 262-486): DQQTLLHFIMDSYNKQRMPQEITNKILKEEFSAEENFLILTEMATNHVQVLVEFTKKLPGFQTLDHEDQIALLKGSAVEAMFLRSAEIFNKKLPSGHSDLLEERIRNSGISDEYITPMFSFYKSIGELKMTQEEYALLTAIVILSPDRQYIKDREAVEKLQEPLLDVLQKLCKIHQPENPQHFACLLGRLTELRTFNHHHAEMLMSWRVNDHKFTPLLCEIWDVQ

| Compound | EC50 |
| --- | --- |
| CCOc1ccc(-c2cccc(N(CC34CCC(c5noc(C(F)F)n5)(CC3)CC4)C(=O)C34CC(F)(C3)C4)c2)cc1 [Example 461, N-((4-(5-(difluoromethyl)-1,2,4-oxadiazol-3-yl)bicyclo[2.2.2]octan-1-yl)methyl)-N-(4′-ethoxy-[1,1′-biphenyl]-3-yl)-3-fluorobicyclo[1.1.1]pentane-1-carboxamide] | 603 nM |
| CC(C)(C)c1noc(C23CCC(CN(C(=O)C45CC(F)(C4)C5)c4cncc(-c5cnc(C6CC6)nc5)c4)(CC2)CC3)n1 [Example 473, N-((4-(3-(tert-butyl)-1,2,4-oxadiazol-5-yl)bicyclo[2.2.2]octan-1-yl)methyl)-N-(5-(2-cyclopropylpyrimidin-5-yl)pyridin-3-yl)-3-fluorobicyclo[1.1.1]pentane-1-carboxamide] | 501 nM |
| Cn1nc(C2CC2)cc1C12CCC(CN(C(=O)C34CC(F)(C3)C4)c3cc(-c4ccc(NS(C)(=O)=O)cc4)ccn3)(CC1)CC2 [Example 547, N-((4-(3-cyclopropyl-1-methyl-1H-pyrazol-5-yl)bicyclo[2.2.2]octan-1-yl)methyl)-3-fluoro-N-(4-(4-(methylsulfonamido)phenyl)pyridin-2-yl)bicyclo[1.1.1]pentane-1-carboxamide] | 251 nM |
| CCc1ccc(-c2cccc(N(CC34CCC(c5ccc(C(F)(F)F)cn5)(CC3)CC4)C(=O)C34CC(F)(C3)C4)c2)cc1 [Example 497, N-(4′-ethyl-[1,1′-biphenyl]-3-yl)-3-fluoro-N-((4-(5-(trifluoromethyl)pyridin-2-yl)bicyclo[2.2.2]octan-1-yl)methyl)bicyclo[1.1.1]pentane-1-carboxamide] | 989 nM |

Same assay, conditions: Gal4-hFXR fusion construct, HEK293 reporter cells; response relative to 8 μM GW-4064

| Compound | EC50 |
| --- | --- |
| CC(C)(C#N)Oc1ccc(-c2cccc(N(CC34CCC(c5noc(C(C)(C)F)n5)(CC3)CC4)C(=O)N3CCC(C(C)(C)O)CC3)c2)cc1 [Example 651, N-(4′-((2-cyanopropan-2-yl)oxy)-[1,1′-biphenyl]-3-yl)-N-((4-(5-(2-fluoropropan-2-yl)-1,2,4-oxadiazol-3-yl)bicyclo[2.2.2]octan-1-yl)methyl)-4-(2-hydroxypropan-2-yl)piperidine-1-carboxamide] | 273 nM |
| COc1cnc(-c2cccc(N(CC34CCC(c5nc(C6CC6)no5)(CC3)CC4)C(=O)C34CC(F)(C3)C4)c2)nc1 [Example 334, N-((4-(3-cyclopropyl-1,2,4-oxadiazol-5-yl)bicyclo[2.2.2]octan-1-yl)methyl)-3-fluoro-N-(3-(5-methoxypyrimidin-2-yl)phenyl)bicyclo[1.1.1]pentane-1-carboxamide] | 77 nM |
| CC(C)Oc1ccc(-c2ccnc(N(CC34CCC(c5ccc(C(C)(F)F)cn5)(CC3)CC4)C(=O)[C@H]3C[C@@](C)(OC(F)F)C3)c2)cc1 [Example 640, (cis)-N-((4-(5-(1,1-difluoroethyl)pyridin-2-yl)bicyclo[2.2.2]octan-1-yl)methyl)-3-(difluoromethoxy)-N-(4-(4-isopropoxyphenyl)pyridin-2-yl)-3-methylcyclobutane-1-carboxamide] | 27 nM |
| CC(C)Oc1ccc(-c2ccnc(N(CC34CCC(c5noc(C(C)(F)F)n5)(CC3)CC4)C(=O)OC(C)(C)C(F)(F)F)c2)cc1 [Example 610, 1,1,1-trifluoro-2-methylpropan-2-yl ((4-(5-(1,1-difluoroethyl)-1,2,4-oxadiazol-3-yl)bicyclo[2.2.2]octan-1-yl)methyl)(4-(4-isopropoxyphenyl)pyridin-2-yl)carbamate] | 47 nM |
| O=C(N(CC12CCC(c3nc(C4CC4)no3)(CC1)CC2)c1cccc(-c2ncc(OC(F)F)cn2)c1)C12CC(F)(C1)C2 [Example 335, N-((4-(3-cyclopropyl-1,2,4-oxadiazol-5-yl)bicyclo[2.2.2]octan-1-yl)methyl)-N-(3-(5-(difluoromethoxy)pyrimidin-2-yl)phenyl)-3-fluorobicyclo[1.1.1]pentane-1-carboxamide] | 26 nM |
| O=C(N(CC12CCC(c3nc(C4CC4)no3)(CC1)CC2)c1cccc(-c2cnc(C(F)(F)F)nc2)c1)C12CC(F)(C1)C2 [Example 262, N-((4-(3-cyclopropyl-1,2,4-oxadiazol-5-yl)bicyclo[2.2.2]octan-1-yl)methyl)-3-fluoro-N-(3-(2-(trifluoromethyl)pyrimidin-5-yl)phenyl)bicyclo[1.1.1]pentane-1-carboxamide] | 140 nM |
| Cn1nc(C23CCC(CN(C(=O)C45CC(F)(C4)C5)c4cccc(-c5ccc(NS(C)(=O)=O)cc5)c4)(CC2)CC3)cc1C1CC1 [Example 406, N-((4-(5-cyclopropyl-1-methyl-1H-pyrazol-3-yl)bicyclo[2.2.2]octan-1-yl)methyl)-3-fluoro-N-(4′-(methylsulfonamido)-[1,1′-biphenyl]-3-yl)bicyclo[1.1.1]pentane-1-carboxamide] | 203 nM |
| CC(C)c1noc(C23CCC(CN(C(=O)C45CC(F)(C4)C5)c4cccc(-c5ccc(NS(=O)(=O)C(F)(F)F)cc5)c4)(CC2)CC3)n1 [Example 390, 3-fluoro-N-((4-(3-isopropyl-1,2,4-oxadiazol-5-yl)bicyclo[2.2.2]octan-1-yl)methyl)-N-(4′-((trifluoromethyl)sulfonamido)-[1,1′-biphenyl]-3-yl)bicyclo[1.1.1]pentane-1-carboxamide] | 96 nM |
| CC(C)(C)c1noc(C23CCC(CN(C(=O)C45CC(F)(C4)C5)c4cccc(-c5ccc(OC(F)F)cn5)c4)(CC2)CC3)n1 [Example 373, N-((4-(3-(tert-butyl)-1,2,4-oxadiazol-5-yl)bicyclo[2.2.2]octan-1-yl)methyl)-N-(3-(5-(difluoromethoxy)pyridin-2-yl)phenyl)-3-fluorobicyclo[1.1.1]pentane-1-carboxamide] | 88 nM |
| COc1nccc(-c2cccc(N(CC34CCC(c5nc(C6CC6)no5)(CC3)CC4)C(=O)C3CCC3)c2)n1 [Example 244, N-((4-(3-cyclopropyl-1,2,4-oxadiazol-5-yl)bicyclo[2.2.2]octan-1-yl)methyl)-N-(3-(2-methoxypyrimidin-4-yl)phenyl)cyclobutanecarboxamide] | 576 nM |
| Cc1ccc(-c2cccc(N(CC34CCC(c5nc(C6CC6)no5)(CC3)CC4)C(=O)C34CC(F)(C3)C4)c2)nc1 [Example 325, N-((4-(3-cyclopropyl-1,2,4-oxadiazol-5-yl)bicyclo[2.2.2]octan-1-yl)methyl)-3-fluoro-N-(3-(5-methylpyridin-2-yl)phenyl)bicyclo[1.1.1]pentane-1-carboxamide] | 24 nM |
| CCOc1cnc(-c2cccc(N(CC34CCC(c5nc(C6CC6)no5)(CC3)CC4)C(=O)C34CC(F)(C3)C4)c2)nc1 [Example 333, N-((4-(3-cyclopropyl-1,2,4-oxadiazol-5-yl)bicyclo[2.2.2]octan-1-yl)methyl)-N-(3-(5-ethoxypyrimidin-2-yl)phenyl)-3-fluorobicyclo[1.1.1]pentane-1-carboxamide] | 302 nM |
| CC(C)(C)c1noc(C23CCC(CN(C(=O)C45CC(F)(C4)C5)c4cccc(-c5ccc(NS(=O)(=O)C(F)(F)F)cc5)c4)(CC2)CC3)n1 [Example 372, N-((4-(3-(tert-butyl)-1,2,4-oxadiazol-5-yl)bicyclo[2.2.2]octan-1-yl)methyl)-3-fluoro-N-(4′-((trifluoromethyl)sulfonamido)-[1,1′-biphenyl]-3-yl)bicyclo[1.1.1]pentane-1-carboxamide] | 131 nM |
| O=C(N(CC12CCC(c3nc(C4CC4)no3)(CC1)CC2)c1cccc(-c2cnc3cc(Cl)cnn23)c1)C12CC(F)(C1)C2 [Example 329, N-(3-(7-chloroimidazo[1,2-b]pyridazin-3-yl)phenyl)-N-((4-(3-cyclopropyl-1,2,4-oxadiazol-5-yl)bicyclo[2.2.2]octan-1-yl)methyl)-3-fluorobicyclo[1.1.1]pentane-1-carboxamide] | 222 nM |
| CCOc1ncc(-c2cccc(N(CC34CCC(c5noc(C(F)F)n5)(CC3)CC4)C(=O)C34CC(F)(C3)C4)c2)cn1 [Example 459, N-((4-(5-(difluoromethyl)-1,2,4-oxadiazol-3-yl)bicyclo[2.2.2]octan-1-yl)methyl)-N-(3-(2-ethoxypyrimidin-5-yl)phenyl)-3-fluorobicyclo[1.1.1]pentane-1-carboxamide] | 192 nM |
| CC(C)(O)c1ccc(-c2ccnc(N(CC34CCC(c5noc(C(C)(C)F)n5)(CC3)CC4)C(=O)OC(C)(C)C(F)(F)F)c2)cc1 [Example 634, 1,1,1-trifluoro-2-methylpropan-2-yl((4-(5-(2-fluoropropan-2-yl)-1,2,4-oxadiazol-3-yl)bicyclo[2.2.2]octan-1-yl)methyl)(4-(4-(2-hydroxypropan-2-yl)phenyl)pyridin-2-yl) carbamate] | 31 nM |
| CC(C)(C)c1noc(C23CCC(CN(C(=O)C45CC(F)(C4)C5)c4cccc(-c5cnc(C6CC6)nc5)c4)(CC2)CC3)n1 [Example 358, N-((4-(3-(tert-butyl)-1,2,4-oxadiazol-5-yl)bicyclo[2.2.2]octan-1-yl)methyl)-N-(3-(2-cyclopropylpyrimidin-5-yl)phenyl)-3-fluorobicyclo[1.1.1]pentane-1-carboxamide] | 154 nM |
| CC(C)(O)c1ccc(-c2cccc(N(CC34CCC(c5noc(C(C)(C)F)n5)(CC3)CC4)C(=O)N3CC4(C3)CS(=O)(=O)C4)c2)cc1 [Example 641, N-((4-(5-(2-fluoropropan-2-yl)-1,2,4-oxadiazol-3-yl)bicyclo[2.2.2]octan-1-yl)methyl)-N-(4′-(2-hydroxypropan-2-yl)-[1,1′-biphenyl]-3-yl)-2-thia-6-azaspiro[3.3]heptane-6-carboxamide 2,2-dioxide] | 1300 nM |
| CC(C)(O)CN1CC=C(c2cccc(N(CC34CCC(c5noc(C(C)(C)F)n5)(CC3)CC4)C(=O)C34CC(F)(C3)C4)c2)CC1 [Example 663, 3-fluoro-N-((4-(5-(2-fluoropropan-2-yl)-1,2,4-oxadiazol-3-yl)bicyclo[2.2.2]octan-1-yl)methyl)-N-(3-(1-(2-hydroxy-2-methylpropyl)-1,2,3,6-tetrahydropyridin-4-yl)phenyl) bicyclo[1.1.1]pentane-1-carboxamide] | 159 nM |
